Test results reported in the supplement of paper PMC4932681.

Experiments:
MCF-7 Tam1 [1] = experiment: relative IC50 (midpoint of fitted logistic curve, plateau may be below 50% inhibition; CellTiter-Glo viability); higher = less potent; details: 4-OH-tamoxifen in medium 1 µM; 72 h
Method: (§1)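 FIMM FO2B library drugs were plated at 5 concentrations spanning a 10,000-fold range in 384-well plates. Cells were incubated for 72 h at 37 °C and viability was read by CellTiter-Glo, normalised to DMSO (0% inhibition) and 100 µM benzethonium chloride (100% inhibition). IC50 values come from logistic dose-response fits (Breeze pipeline). Tamoxifen-resistant lines and the 'in 1µM tamoxifen' parental arms were tested in medium with 1 µM 4-OH-tamoxifen.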

ZR-75-1 [2] = experiment: as above; details: 72 h
Method: as §1

ZR-75-1 Tam2 [3] = experiment: as above; details: 4-OH-tamoxifen in medium 1 µM; 72 h
Method: as §1

BT-474 Tam2 [4] = experiment: as above; details: 4-OH-tamoxifen in medium 1 µM; 72 h
Method: as §1

BT-474 Tam1 [5] = experiment: as above; details: 4-OH-tamoxifen in medium 1 µM; 72 h
Method: as §1

T-47D Tam1 [6] = experiment: as above; details: 4-OH-tamoxifen in medium 1 µM; 72 h
Method: as §1

BT-474 [7] = experiment: as above; details: 72 h
Method: as §1

ZR-75-1 Tam1 [8] = experiment: as above; details: 4-OH-tamoxifen in medium 1 µM; 72 h
Method: as §1

T-47D [9] = experiment: as above; details: 72 h
Method: as §1

MCF-7 Tam1 [10] = experiment: drug sensitivity score (DSS) (DSS (dimensionless)); higher = more sensitive; extreme values may be limits of the assay; details: 4-OH-tamoxifen in medium 1 µM; 72 h
Method: (§2)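 FIMM FO2B library drugs were tested at 5 concentrations (10,000-fold range) for 72 h, with CellTiter-Glo viability normalised to DMSO and benzethonium chloride controls. The Drug Sensitivity Score (DSS) is computed from the fitted logistic dose-response curve (area-based; 0 = inactive). Resistant lines and the 'in 1µM tamoxifen' arms were tested in 1 µM 4-OH-tamoxifen.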

ZR-75-1 [11] = experiment: as above; details: 72 h
Method: as §2

ZR-75-1 Tam2 [12] = experiment: as above; details: 4-OH-tamoxifen in medium 1 µM; 72 h
Method: as §2

T-47D Tam2 = experiment: as above; details: 4-OH-tamoxifen in medium 1 µM; 72 h
Method: as §2

BT-474 Tam2 [13] = experiment: as above; details: 4-OH-tamoxifen in medium 1 µM; 72 h
Method: as §2

BT-474 Tam1 [14] = experiment: as above; details: 4-OH-tamoxifen in medium 1 µM; 72 h
Method: as §2

T-47D Tam1 [15] = experiment: as above; details: 4-OH-tamoxifen in medium 1 µM; 72 h
Method: as §2

BT-474 [16] = experiment: as above; details: 72 h
Method: as §2

ZR-75-1 Tam1 [17] = experiment: as above; details: 4-OH-tamoxifen in medium 1 µM; 72 h
Method: as §2

T-47D [18] = experiment: as above; details: 72 h
Method: as §2

MCF-7 [19] = experiment: as above; details: 72 h
Method: as §2

MCF-7 [20] = experiment: relative IC50 (midpoint of fitted logistic curve, plateau may be below 50% inhibition; CellTiter-Glo viability); higher = less potent; details: 72 h
Method: as §1

relative IC50 (MCF-7 Tam1 [1]) [nM] | relative IC50 (BT-474 Tam2 [4]) [nM] | relative IC50 (BT-474 Tam1 [5]) [nM] | relative IC50 (T-47D Tam1 [6]) [nM] | relative IC50 (BT-474 [7]; 4-OH-tamoxifen in medium 0 µM) [nM] | relative IC50 (BT-474 [7]; 4-OH-tamoxifen in medium 1 µM) [nM] | relative IC50 (T-47D [9]; 4-OH-tamoxifen in medium 0 µM) [nM] | relative IC50 (T-47D [9]; 4-OH-tamoxifen in medium 1 µM) [nM] | relative IC50 (MCF-7 [20]; 4-OH-tamoxifen in medium 1 µM) [nM] | relative IC50 (MCF-7 [20]; 4-OH-tamoxifen in medium 0 µM) [nM] | Structure (SMILES) | relative IC50 (ZR-75-1 [2]; 4-OH-tamoxifen in medium 0 µM) [nM] | relative IC50 (ZR-75-1 Tam2 [3]) [nM] | relative IC50 (ZR-75-1 Tam1 [8]) [nM] | drug sensitivity score (MCF-7 Tam1 [10]) | drug sensitivity score (ZR-75-1 [11]; 4-OH-tamoxifen in medium 0 µM) | drug sensitivity score (ZR-75-1 [11]; 4-OH-tamoxifen in medium 1 µM) | drug sensitivity score (ZR-75-1 Tam2 [12]) | drug sensitivity score (T-47D Tam2) | drug sensitivity score (BT-474 Tam2 [13]) | drug sensitivity score (BT-474 Tam1 [14]) | drug sensitivity score (T-47D Tam1 [15]) | drug sensitivity score (BT-474 [16]; 4-OH-tamoxifen in medium 0 µM) | drug sensitivity score (BT-474 [16]; 4-OH-tamoxifen in medium 1 µM) | drug sensitivity score (ZR-75-1 Tam1 [17]) | drug sensitivity score (T-47D [18]; 4-OH-tamoxifen in medium 0 µM) | drug sensitivity score (T-47D [18]; 4-OH-tamoxifen in medium 1 µM) | drug sensitivity score (MCF-7 [19]; 4-OH-tamoxifen in medium 0 µM) | drug sensitivity score (MCF-7 [19]; 4-OH-tamoxifen in medium 1 µM) | relative IC50 (ZR-75-1 [2]; 4-OH-tamoxifen in medium 1 µM) [nM]
> 10000 | > 10000 | > 10000 | 1730 | > 10000 | > 10000 | 1240 | > 10000 | – | – | CCc1c2c(nc3ccc(OC(=O)N4CCC(N5CCCCC5)CC4)cc13)-c1cc3c(c(=O)n1C2)COC(=O)[C@]3(O)CC [Irinotecan] | 1710 | 1590 | 1390 | 0 | 3.43 | 1.34 | 3.94 | 0.581 | 0 | 0 | 2.72 | 0 | 0 | 3.21 | 4.39 | 0 | 1.56 | 1.5 | –
> 10000 | – | 3060 | > 10000 | > 10000 | > 10000 | – | – | – | – | NC(=O)c1cccc2cn(-c3ccc([C@@H]4CCCNC4)cc3)nc12 [MK-4827] | – | > 10000 | > 10000 | 0 | 0.0039 | 0 | 0 | 0.764 | 0.615 | 2.21 | 0 | 0 | 0 | 0 | 0.34 | 1.04 | 0.385 | 1.11 | > 10000
> 10000 | 723 | 1150 | 326 | – | 1610 | > 10000 | > 10000 | – | – | CC1(C)CCC(c2ccc(Cl)cc2)=C(CN2CCN(c3ccc(C(=O)NS(=O)(=O)c4ccc(N[C@H](CCN5CCOCC5)CSc5ccccc5)c(S(=O)(=O)C(F)(F)F)c4)cc3)CC2)C1 [Navitoclax (ABT-263)] | > 10000 | > 10000 | > 10000 | 0 | 0 | 0 | 0 | 1.65 | 3.9 | 2.79 | 14.1 | 0 | 4.26 | 0 | 0 | 0 | 1.6 | 0.949 | > 10000
> 10000 | > 10000 | 155 | > 10000 | > 10000 | – | > 10000 | > 10000 | > 10000 | – | COC(=O)c1ccc2c(c1)NC(=O)/C2=C(\Nc1ccc(N(C)C(=O)CN2CCN(C)CC2)cc1)c1ccccc1 [Nintedanib (BIBF 1120)] | > 10000 | > 10000 | – | 0 | 0 | 0 | 0 | 0.209 | 0 | 7.37 | 0 | 0 | 3.83 | 0 | 0 | 0 | 0.34 | 0 | > 10000
> 10000 | > 10000 | – | > 10000 | > 10000 | > 10000 | – | > 10000 | – | > 10000 | O=C(c1cc(Cc2n[nH]c(=O)c3ccccc23)ccc1F)N1CCN(C(=O)C2CC2)CC1 [Olaparib] | > 10000 | > 10000 | > 10000 | 0 | 0 | 0 | 0 | 0.0505 | 0 | 0.0009 | 0 | 0 | 0 | 0 | 0 | 0 | 0 | 0.285 | > 10000
> 10000 | 1350 | 1170 | 504 | 2150 | 1290 | – | > 10000 | – | – | CN1CCN(CCOc2cc(OC3CCOCC3)c3c(Nc4c(Cl)ccc5c4OCO5)ncnc3c2)CC1 [Saracatinib] | > 10000 | > 10000 | > 10000 | 0 | 0 | 0 | 0 | 3.11 | 10.1 | 10.8 | 5.37 | 3.72 | 9.8 | 0 | 1.32 | 0 | 2.15 | 0.814 | > 10000
> 1000 | – | > 1000 | 5.24 | – | – | 1.07 | – | 4.86 | 4.79 | CO[C@H]1C[C@@H]2CC[C@@H](C)[C@@](O)(O2)C(=O)C(=O)N2CCCC[C@H]2C(=O)O[C@H]([C@H](C)C[C@@H]2CC[C@@H](O)[C@H](OC)C2)CC(=O)[C@H](C)/C=C(\C)[C@@H](O)[C@@H](OC)C(=O)[C@H](C)C[C@H](C)/C=C/C=C/C=C/1C [Sirolimus (Rapamycin)] | 1.84 | 2 | 4.48 | 0 | 12.7 | 9.39 | 12.4 | 3.53 | 1.85 | 0 | 8.59 | 5.15 | 1.96 | 8.75 | 10.6 | 0.392 | 12.7 | 11.1 | 2.35
> 1000 | > 1000 | > 1000 | 100 | > 1000 | > 1000 | 77.9 | > 1000 | – | – | CC[C@@]1(O)C(=O)OCc2c1cc1n(c2=O)Cc2cc3c(CN(C)C)c(O)ccc3nc2-1 [Topotecan] | 95.2 | 136 | 156 | 0 | 5.48 | 3.54 | 4.55 | 1.16 | 0 | 0 | 5.31 | 0 | 0 | 3.45 | 7.46 | 0 | 0.567 | 2.53 | 130
